Measurements taken from patent US11124779B2, “Compositions and methods for treating and preventing pancreatitis, renal injury and cancer” (Yale University, priority 2014, dated 2021).
Where a SMILES comes first, the peptide text is derived from it. Where no end group is shown, it is not given here.

Key:
HK-2 cells [1] = test: In vitro model of cisplatin toxicity: HK-2 cell survival by the WST-1 method; type: cell-based, human
Description: FIG. 1B is a graph depicting the effect of renalase peptides on survival of HK-2 cells exposed to 20 μM cisplatin for 24 hrs; cell survival is depicted as % change in survival compared to that in cisplatin-treated HK-2 cells without renalase peptides; cell survival was measured by the WST-1 method; RP-A220: mutated RP-220, and RP-19 and RP-128: control peptides; peptide concentration (μg/ml) indicated in top line; n=4, *=p<0.05. […]
HK-2 cells (human proximal tubular line) obtained from ATTC (Manassas, Va., USA) were cultured in DMEM/F12 supplemented with glutamine, 10% FBS and antibiotics, and were maintained at 37° C. in 5% CO2. Cells were exposed to cisplatin (20 μM) in the presence or absence of recombinant renalase or renalase peptides for 24 hrs, and cell viability was assessed by the WST1 method (Roche Applied Science, Germany).

HK-2 cells [2] = conditions: Wang et al., 2014; cited from earlier work
MAPK signaling = conditions: Wang et al., 2014; cited from earlier work
HK-2 cells [3] = test: In vitro model of cisplatin toxicity: HK-2 cell survival by the WST-1 method; type: cell-based, human; conditions: control conditions, no cisplatin
p38 MAPK = test: MAPK signaling by immunoblot: p38 phosphorylation in HK-2 cells; type: cell-based, human; conditions: cisplatin alone, 1-60 min
Description: (§1) FIGS. 2A-2C, depict how RP-220 alters the pattern of MAPK activation in cisplatin treated cells. FIG. 2A is an image of a gel depicting MAPK phosphorylation with cisplatin alone (CP) and with CP and RP-220; representative study: p-p38: phosphorylated p38 MAPK; p-ERK: phosphorylated ERK. FIG. 2B is a graph depicting quantification of ERK activation. Signals were normalized to glyceraldehyde 3-phosphate dehydrogenase (GAPDH) loading control; n=3, *=P<0.05. FIG. 2C is a graph depicting quantification of p38 activation, signals normalized to GAPDH loading control; n=3, *=P<0.05.
(§2) FIGS. 5A-5E, depict how PMCA4b inhibition abrogates renalase peptide mediated MAPK signaling and cytoprotection. […] is a series of panels depicting how PMCA4b inhibition abrogates RP-220 mediated ERK and p38 signaling in HK-2 cells; caloxin1b=peptide inhibitor of PMCA4; left panel: RP-220 mediated ERK and p38 activation, phospho=phosphorylated, representative blot; middle panel: inhibition of RP-220 mediated ERK and p38 activation by caloxin1b (100 μM); right panel: quantification of phosphorylated p38 (P-p38) and phosphorylated ERK (p-ERK); signals were normalized to glyceraldehyde 3-phosphate dehydrogenase (GAPDH) loading control; n=3, *=P<0.05. […]

ERK = test: MAPK signaling by immunoblot: ERK phosphorylation in HK-2 cells; type: cell-based, human; conditions: cisplatin alone, 1-60 min
Description: as §1, §2

[4] = 20 μM cisplatin, 24 hrs, WST-1, range of peptide concentrations

Compound: CC[C@H](C)[C@H](NC(=O)[C@H](CCC(=O)O)NC(=O)[C@H](CO)NC(=O)[C@H](CO)NC(=O)[C@H](CCC(=O)O)NC(=O)[C@@H](NC(=O)[C@H](CC(N)=O)NC(=O)[C@H](CCCNC(=N)N)NC(=O)[C@H](CCCCN)NC(=O)[C@H](CCCCN)NC(=O)[C@H](CC(N)=O)NC(=O)[C@H](CC(=O)O)NC(=O)[C@@H](NC(=O)[C@H](CO)NC(=O)[C@@H](NC(=O)[C@H](Cc1ccccc1)NC(=O)[C@H](CCCNC(=N)N)NC(=O)[C@@H](NC(=O)[C@H](CS)NC(C)=O)[C@@H](C)CC)C(C)C)[C@@H](C)CC)[C@@H](C)CC)C(=O)NCC(=O)O [RP-220] (Ac-CIRFVSIDNKKRNIESSEIG-OH)
- protective effect against cisplatin cytotoxicity after down-regulation of PMCA4b expression (HK-2 cells [1]; HK-2 cells, PMCA4b siRNA, 20 μM cisplatin 24 hrs, peptide 15 μg/ml): abrogated
- relative potency at protecting HK-2 cells against cisplatin cytotoxicity (concentration dependent effects) (HK-2 cells [1]; dose response curve, 20 μM cisplatin, 24 hrs): equipotent

Compound: RP-224: renalase peptide, SEQ ID NO: 3, CVSIDNKKRNI, acetylated at the amino terminus (Ac-CVSIDNKKRNI; listed as Homo sapiens)
- survival of HK-2 cells exposed to cisplatin (protective effect) (HK-2 cells [1]; 20 μM cisplatin, 24 hrs, test substance 100 μg/ml): protected HK-2 cells to a similar degree

Compound: RP-Scr220: scrambled RP-220 control peptide, SEQ ID NO: 7, CSKRIFKVISSIEDNNERG (listed as Homo sapiens)
- protection of cells (HK-2 cells [2]): failed to protect cells
- activation of MAPK signaling (MAPK signaling): did not activate MAPK signaling

Compound: C[S+]([O-])c1ccc(-c2nc(-c3ccncc3)c(-c3ccc(F)cc3)[nH]2)cc1 (stereo not shown) [SB203580, 4-[4′-Fluorophenyl]-2-[4′-methylsulfinylphenyl]-5-[4′-pyridyl]-imidazole, reference compound]
- effect of kinase inhibitor on protection by RP-220 against cisplatin (HK-2 cells [1]; HK-2 cells, 20 μM cisplatin 24 hrs plus RP-220, SB203580 10 μM): completely abrogated
- survival of HK-2 cells with inhibitor alone (HK-2 cells [3]): did not adversely affect the survival

Compound: RP-A220: mutated RP-220, SEQ ID NO: 6, IRFVSIDNAAANIESSEIG (listed as Homo sapiens)
- survival of HK-2 cells exposed to cisplatin (protective effect) (HK-2 cells [1]; [4]): did not improve cell survival
- survival of HK-2 cells exposed to cisplatin (protective effect) (HK-2 cells [1]; 20 μM cisplatin, 24 hrs, test substance 80 μg/ml): exacerbated cisplatin toxicity

Compound: N.N.[Cl][Pt][Cl] [Cisplatin, cisplatin]
- p38 phosphorylation (p38 MAPK): modestly increased
- ERK phosphorylation (ERK): modestly increased

Compound: RP-19: control renalase peptide, SEQ ID NO: 1, LLRRQTSGPLYLAVWDKAED, acetylated at the amino terminus (Ac-LLRRQTSGPLYLAVWDKAED; listed as Homo sapiens)
- survival of HK-2 cells exposed to cisplatin (protective effect) (HK-2 cells [1]; [4]): did not improve cell survival

Compound: RP-128: control renalase peptide, SEQ ID NO: 2, FRHRVTQINLRDDKWEVSKQ, acetylated at the amino terminus (Ac-FRHRVTQINLRDDKWEVSKQ; listed as Homo sapiens)
- survival of HK-2 cells exposed to cisplatin (protective effect) (HK-2 cells [1]; [4]): did not improve cell survival
